Measurements published in ChEMBL document CHEMBL1141725, “DNA-templated click chemistry for creation of novel DNA binding molecules” (Bioorg Med Chem Lett, 2008).

Legend:
[1] = Stabilization of double strand CGCG12 DNA assessed as change in melting temperature
[2] = Binding affinity to double strand AATT12 DNA by fluorescence titration
[3] = Stabilization of double strand AATT12 DNA assessed as change in melting temperature
[4] = Binding affinity to double strand CGCG12 DNA by fluorescence titration

ΔTm [1] | Ks [2] | ΔTm [3] | Ks [4] | SMILES
0 °C | 0.01 ×10⁵ /M | 0 °C | – | C#CCCCC(=O)N1CCC[C@H]1C(=O)N[C@@H](CCCNC(=N)N)C(=O)NCC(=O)N[C@@H](CCCNC(=N)N)CN1CCC[C@H]1C(N)=O
3.9 °C | 7.3 ×10⁵ /M | 8.1 °C | 3.6 ×10⁵ /M | N=C(N)NCCC[C@@H](CN1CCC[C@H]1C(N)=O)NC(=O)CNC(=O)[C@H](CCCNC(=N)N)NC(=O)[C@@H]1CCCN1C(=O)CCCc1cn(CCCNc2c3ccccc3nc3ccccc23)nn1
2 °C | 1.6 ×10⁵ /M | 3.1 °C | 2 ×10⁵ /M | [N-]=[N+]=NCCCNc1c2ccccc2nc2ccccc12
